The structures appear in SMILES notation.

As a reminder, the Ki is a measure of affinity in units of concentration, obtained from inhibition or displacement.

This test addresses T1, PknB (Mycobacterium tuberculosis, UniProt P9WI81).
T1 construct: made in house
The test can be described thus: biochemical. The following applies: 3 nM PknB, 6 uM GarA, 3 μM ATP, 30 min, competitive tight-binding fit, several symbols in a cell = repeat determinations; for Ki: read-out: Ki Values. More on the design: species or system M. tuberculosis.

T1 sequence (P9WI81 whole entry): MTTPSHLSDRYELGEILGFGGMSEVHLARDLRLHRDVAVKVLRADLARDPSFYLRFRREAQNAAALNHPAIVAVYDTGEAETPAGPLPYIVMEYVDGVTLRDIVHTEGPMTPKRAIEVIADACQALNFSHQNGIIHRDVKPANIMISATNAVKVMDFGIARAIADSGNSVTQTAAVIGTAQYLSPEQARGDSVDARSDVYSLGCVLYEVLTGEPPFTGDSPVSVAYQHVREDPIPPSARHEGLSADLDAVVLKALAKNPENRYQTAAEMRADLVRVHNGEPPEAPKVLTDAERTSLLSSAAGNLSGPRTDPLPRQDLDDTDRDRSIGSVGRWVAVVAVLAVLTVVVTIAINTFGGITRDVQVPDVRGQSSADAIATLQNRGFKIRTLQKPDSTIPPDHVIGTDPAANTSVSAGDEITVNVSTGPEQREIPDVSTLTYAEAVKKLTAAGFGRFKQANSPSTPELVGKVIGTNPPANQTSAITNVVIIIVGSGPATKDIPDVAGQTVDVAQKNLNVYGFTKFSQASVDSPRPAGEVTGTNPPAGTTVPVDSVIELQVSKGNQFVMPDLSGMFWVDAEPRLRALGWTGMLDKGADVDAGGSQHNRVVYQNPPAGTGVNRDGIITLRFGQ

Regarding `C#Cc1cnc(-c2ccc(CO)s2)nc1Nc1cc(C2CC2)[nH]n1` [Compound 196, (5-(4-(5-cyclopropyl-1H-pyrazol-3-ylamino)-5-ethynylpyrimidin-2-yl)thiophen-2-yl)methanol], the Ki lay within 10 to 50 nM.

Regarding `C#Cc1cnc(-c2ccc(S(=O)(=O)NC(=O)C(C)(C)C)s2)nc1Nc1cc(C2CC2)[nH]n1` [Compound 201, N-[[5-[4-[(5-cyclopropyl-1H-pyrazol-3-yl)amino]-5-ethynyl-pyrimidin-2-yl]-2-thienyl]sulfonyl]-2,2-dimethyl-propanamide], the “Ki Values” is listed as “B*, B*, B”.

Take `C#Cc1cnc(-c2ccc(C(=O)C(=O)OCC)s2)nc1Nc1cc(C2CC2)[nH]n1` [Compound 202, ethyl 2-[5-[4-[(5-cyclopropyl-1H-pyrazol-3-yl)amino]-5-ethynyl-pyrimidin-2-yl]-2-thienyl]-2-oxo-acetate]: the Ki was in the range of 10 to 50 nM.

On to `C#Cc1cnc(-c2ccc(C(=O)NCCNC(C)=O)s2)nc1Nc1cc(C2CC2)n[nH]1` [Compound 206, N-(2-acetamidoethyl)-5-(4-(5-cyclopropyl-1H-pyrazol-3-ylamino)-5-ethynylpyrimidin-2-yl)thiophene-2-carboxamide], for which the “Ki Values” was “B**, B**, B*”.

For `C/C=C\c1cnc(-c2ccc(S(N)(=O)=O)s2)nc1Nc1cc(C2CC2)[nH]n1` [Compound 207, (Z)-5-(4-(5-cyclopropyl-1H-pyrazol-3-ylamino)-5-(prop-1-enyl)pyrimidin-2-yl)thiophene-2-sulfonamide], the Ki lay within 1 to 10 nM.

For the compound `CC(O)c1cnc(-c2ccc(S(=O)(=O)NC(C)(C)C)s2)nc1Nc1cc(C2CC2)[nH]n1` (stereo not shown) [Compound 208, 5-[4-[(5-cyclopropyl-1H-pyrazol-3-yl)amino]-5-(1-hydroxyethyl)pyrimidin-2-yl]-N-tert-butyl-thiophene-2-sulfonamide], the “Ki Values” is recorded as “B**, B**, B*, B”.

Consider `C=Cc1cnc(-c2ccc(S(N)(=O)=O)s2)nc1Nc1cc(C2CC2)[nH]n1` [Compound 209, 5-(4-(5-Cyclopropyl-1H-pyrazol-3-ylamino)-5-vinylpyrimidin-2-yl)thiophene-2-sulfonamide], for which the Ki was 1 to 10 nM.

As to `C#Cc1cnc(-c2ccc([C@H](O)CC)s2)nc1Nc1cc(C2CC2)[nH]n1` [Compound 213, 1-[5-[4-[(5-cyclopropyl-1H-pyrazol-3-yl)amino]-5-ethynyl-pyrimidin-2-yl]-2-thienyl]propan-1-ol], the Ki fell in the range of 1 to 10 nM.

Regarding `NS(=O)(=O)c1ccc(-c2ncc(C#CCO)c(Nc3cc(C4CC4)[nH]n3)n2)s1` [Compound 217, 5-(4-(5-Cyclopropyl-1H-pyrazol-3-ylamino)-5-(3-hydroxyprop-1-ynyl)pyrimidin-2-yl)thiophene-2-sulfonamide], the “Ki Values” is listed as “A**, A*”.

Take `CC(C)(C)NS(=O)(=O)c1ccc(-c2ncc(/C=C/CO)c(Nc3cc(C4CC4)[nH]n3)n2)s1` [Compound 218, (E)-N-tert-butyl-5-(4-(5-cyclopropyl-1H-pyrazol-3-ylamino)-5-(3-hydroxyprop-1-enyl)pyrimidin-2-yl)thiophene-2-sulfonamide]: the Ki fell in the range of 50 to 100 nM.

`O=C(O)C(O)c1ccc(-c2ncc(Cl)c(Nc3cc(C4CC4)[nH]n3)n2)s1` (stereo not shown) [Compound 219, 2-(5-(5-chloro-4-(5-cyclopropyl-1H-pyrazol-3-ylamino)pyrimidin-2-yl)thiophen-2-yl)-2-hydroxyacetic acid]: the Ki was 100 to 500 nM.

As for `NS(=O)(=O)c1ccc(-c2ncc(Cl)c(Nc3cc(-c4cccs4)[nH]n3)n2)s1` [Compound 220, 5-[5-chloro-4-[[5-(2-thienyl)-1H-pyrazol-3-yl]amino]-pyrimidin-2-yl]thiophene-2-sulfonamide], the Ki is over 4000 nM.

Regarding `NS(=O)(=O)c1ccc(-c2ncc(Cl)c(Nc3cc[nH]n3)n2)s1` [Compound 221, 5-[5-chloro-4-(1H-pyrazol-3-ylamino)-pyrimidin-2-yl]thiophene-2-sulfonamide], the inhibitory constant (Ki) was 1 to 10 nM.
